Measured values published in patent publication US20220205982A1 (CHILDREN'S HOSPITAL MEDICAL CENTER, priority 2019, published 2022).
Values joined by “and” are separate entries in the source; they are usually repeats but may differ in a detail not shown here. Equal values may be shown once. Read-outs that look alike come from different tables or passages of the source.

Assay: Melphalan test dose and full dose pharmacokinetics in patients undergoing RIC allogeneic HCT for non-malignant disorders (Bayesian analysis of plasma concentrations)
Format: in vivo, human
Conditions: for AUC: human, plasma, intravenous; for Distribution of AUC (h * μg/mL): 3.5-≤6.5 / Distribution of AUC (h * μg/mL): <3.5 / Distribution of AUC (h * μg/mL): >6.5: share of transplants
Experimental: Patients undergoing allogeneic HCT for non-malignant disorders with a uniform RIC regimen that included alemtuzumab, fludarabine and melphalan were enrolled in this study. Full standard dose of melphalan was set as follows: • 140 mg/m^2 in patients having a body weight >10 kg, • 4.7 mg/kg in patients having a body weight <10 kg, and • 70 mg/m^2 in one patient with a radio sensitivity disorder.
The patients were given a test dose of melphalan (10% of the standard full dose) prior to start of their preparative regimen. Test dose of 10% of the full standard dose was determined to be the lowest dose level that would be measurable for a sufficiently long time interval (0-4h) to allow reliable AUC estimation. Accordingly, the test doses used in this study were 14 mg/m^2, 7 mg/m^2 and 0.47 mg/kg for patients having the standard full doses of 140 mg/m^2, 70 mg/m^2 and 4.7 mg/kg, respectively.
Blood samples were obtained for PK measurement after the administration of test dose and the full standard dose of melphalan. A total of 10 blood samples were obtained around each dose of melphalan: at baseline (5-10 min prior to start of the melphalan infusion of) and then approximately at 5 min, 15 min, 30 min, 45 min, 60 min, 2 hour, 2.5, 4, and 6 hours after the end of the melphalan infusion. Samples were collected on ice and transported to the institution's mass spectrometry laboratory for instant analysis by PS-MS/MS and conventional LC-MS/MS. Patient data collected for analysis included baseline organ function, presence of oral and gastrointestinal mucositis, renal and liver dysfunction including VOD, initial donor chimerism, graft rejection, and acute and chronic GVHD (aGVHD and cGVHD). The Common Terminology Criteria for Adverse Events (CTCAE) version 4.0 was used to evaluate adverse events. Acute and chronic GVHD were assessed by standardized published criteria. See, e.g., Glucksberg H, et al. Transplantation. 1974; 18:295-304 and Filipovich A H, et al. Biol Blood Marrow Transplant. 2005; 11:945-956. Interim analyses were completed after enrollment of 5 patients and 10 patients respectively to validate data following 25% and 50% of intended total patient enrollment. The AUC range that led to full donor chimerism without excess toxicity in majority of patients was selected to be the desired target AUC for full dose adjustment. In patients with baseline impaired organ function, personalized full dose melphalan was adjusted to limit toxicity if test dose PK predicted standard full dose AUC was higher than the desired target AUC range.
Melphalan levels were measured by validated PS-MS/MS and LC-MS\MS methods (Mirkou A, etc., J Chromatogr B Analyt Technol Biomed Life Sci. 2009; 877:3089-3096). For the PS-MS/MS method, all samples were analyzed using an automated Paper Spray ion source (Prosolia, Inc. Indianapolis, Ind.) interfaced with a TSQ Quantum Ultra mass spectrometer (Thermo Scientific, San Jose, Calif.) operated in selected reaction monitoring (SRM) mode. XCalibur software was used to control the MS and to process data. Specific precursor/product ions were simultaneously monitored for melphalan and its stable isotopically-labelled internal standard (D8-melphalan) by collision-induced dissociation (CID). Blood samples were prepared by spiking known amounts of melphalan standards and the internal standard into drug free human blood to establish a calibration curve and quality control samples. A small amount of patient's blood […] equilibrated with D8-melphalan solution was deposited on the Paper Spray cartridge and dried. A small volume of solvent optimized to efficiently extract the drug was applied to the paper. A stepwise high voltage (3-5 kV) was then applied inducing an electrospray ionization at the tip of the paper; the solvent evaporates from the droplets generating gas phase ions of the analyte, which then can be detected by a mass spectrometer. […]

[1] = a 4-month infant, normal renal and liver function for age
[2] = median and range, 16 patients with normal organ function
[3] = median and range, 17 patients who received standard full dose
[4] = median and range, patients <10 kg, normal organ function, n=5, dose 0.47 mg/kg, 0.47 mg/kg
[5] = median and range, patients >10 kg, normal organ function, n=11, dose 14 mg/m^2
[6] = median and range, six patients (7 transplants) with impaired organ function, adjusted full dose
[7] = median, PK-adjusted full dose, N = 6 (7)

N[C@@H](Cc1ccc(N(CCCl)CCCl)cc1)C(=O)O [melphalan, 4-[Bis(2-chloroethyl)amino]-L-phenylalanine]
test dose clearance [1]: 15.7 L/h/70 kg | test dose predicted full dose AUC [1]: 11.1 µg·h/mL | AUC (0.44 mg/kg, sixth patient, initial HCT, full dose 0.44 mg/kg (9.3% of standard dose), read-out: AUC achieved): 1100 ng·h/mL | AUC (0.47 mg/kg, median and range, patients <10 kg, normal organ function, n=5, dose 0.47 mg/kg, read-out: test dose AUC): 560 ng·h/mL | AUC (1.2 mg/kg, sixth patient, second HCT, full dose 1.2 mg/kg (25.5% of standard dose), read-out: actual observed AUC): 3900 ng·h/mL | AUC (4.7 mg/kg, infant who developed VOD, read-out: full dose melphalan AUC): 6900 ng·h/mL | AUC (4.7 mg/kg, median and range, patients <10 kg, standard dose 4.7 mg/kg, n=6, read-out: full dose AUC): 4800 ng·h/mL | AUC (14 mg/m2, median and range, patients >10 kg, normal organ function, n=11, dose 14 mg/m^2, read-out: test dose AUC): 520 ng·h/mL | AUC (70 mg/m^2, patient with VOD and diffuse alveolar hemorrhage, ataxia telangiectasia, read-out: full dose melphalan AUC): 5000 ng·h/mL | AUC (140 mg/m2, median and range, patients >10 kg, standard dose 140 mg/m2, n=11, read-out: full dose AUC): 5500 ng·h/mL | AUC (140 mg/m2, patient with grade 4 mucositis and gastrointestinal bleeding, read-out: full dose AUC (highest melphalan exposure)): 9500 ng·h/mL | AUC (five patients, adjusted full dose 29% to 70% of standard dose, read-out: actual observed AUC with the adjusted dose): 3600 to 5400 ng·h/mL | AUC (median and range, 16 patients with normal organ function, read-out: test dose AUC): 550 ng·h/mL | AUC (median and range, 17 patients who received standard full dose, read-out: full dose AUC): 5500 ng·h/mL | AUC (median and range, six patients (7 transplants) with impaired organ function, adjusted full dose, read-out: test dose AUC): 840 ng·h/mL | AUC (median in the 12/17 (70.6%) patients with AUC between 3.5 and 6.5, read-out: full dose AUC): 5200 ng·h/mL | AUC (median, PK-adjusted full dose, N = 6 (7), read-out: Full dose AUC): 3900 ng·h/mL | AUC (median, PK-adjusted full dose, N = 6 (7), read-out: Test dose AUC): 840 ng·h/mL | AUC (median, Standard full dose, N = 16 (16), read-out: Test dose AUC): 550 ng·h/mL | AUC (median, Standard full dose, N = 17 (17), read-out: Full dose AUC): 5500 ng·h/mL | AUC (median, Total, N = 22 (23), read-out: Test dose AUC): 590 ng·h/mL | AUC (median, Total, N = 23 (24), read-out: Full dose AUC): 5000 ng·h/mL | AUC (patient with normal organ function who developed grade 4 gastrointestinal mucositis, read-out: full dose AUC): 9500 ng·h/mL | AUC (patients with impaired organ function, adjusted full dose, read-out: observed AUC based on the test dose PK guided adjustment): 3900 ± 1400 ng·h/mL | AUC (full dose melphalan, RIC HCT for non-malignant disorders, read-out: AUC range well tolerated without excess toxicity and sufficient to facilitate engraftment with full donor chimerism): 3500 to 6500 ng·h/mL | FCLstd (body weight normalized clearance by allometric scaling) (individual patients, full dose): 27.4 L/h/70 kg and 46.9 L/h/70 kg and 43.1 L/h/70 kg and 66.8 L/h/70 kg and 30.2 L/h/70 kg and 59.4 L/h/70 kg and 62.8 L/h/70 kg and 38.9 L/h/70 kg and 18.6 L/h/70 kg and 38.3 L/h/70 kg and 42.7 L/h/70 kg and 18.8 L/h/70 kg and 33.9 L/h/70 kg and 38.0 L/h/70 kg and 29.4 L/h/70 kg and 15.1 L/h/70 kg and 25.0 L/h/70 kg and 12.3 L/h/70 kg and 43.5 L/h/70 kg and 36.9 L/h/70 kg and 19.7 L/h/70 kg and 50.6 L/h/70 kg and 34.5 L/h/70 kg | Predicted FAUC (test dose PK evaluation) (individual patients, full dose AUC predicted from test dose PK): 2.9 mg · h/L and 6.5 mg · h/L and 5.9 mg · h/L and 5.1 mg · h/L and 5.2 mg · h/L (3×) and 5.7 mg · h/L (2×) and 14.0 mg · h/L and 14.5 mg · h/L and 7.2 mg · h/L and 5.6 mg · h/L and 4.8 mg · h/L and 6.1 mg · h/L and 5.5 mg · h/L and 11.6 mg · h/L and 11.1 mg · h/L and 16.8 mg · h/L and 7.1 mg · h/L and 13.8 mg · h/L and 4.4 mg · h/L and 7.4 mg · h/L | TCLstd (test dose body weight normalized clearance by allometric scaling) (individual patients, test dose): 47.3 L/h/70 kg and 44.0 L/h/70 kg and 38.8 L/h/70 kg and 56.2 L/h/70 kg and 52.2 L/h/70 kg and 47.8 L/h/70 kg and 49.5 L/h/70 kg and 12.1 L/h/70 kg and 45.2 L/h/70 kg and 18.5 L/h/70 kg and 33.1 L/h/70 kg and 27.5 L/h/70 kg and 33.9 L/h/70 kg and 27.0 L/h/70 kg and 32.3 L/h/70 kg and 13.6 L/h/70 kg and 15.7 L/h/70 kg and 11.3 L/h/70 kg and 35.9 L/h/70 kg and 49.6 L/h/70 kg and 19.2 L/h/70 kg and 67.1 L/h/70 kg and 32.8 L/h/70 kg | predicted AUC for standard full dose melphalan [2]: 2.9 to 11.1 µg·h/mL and 5.5 µg·h/mL | test dose AUC [2]: 0.29 to 1.1 µg·h/mL | full dose AUC [3]: 3.0 to 9.5 µg·h/mL | full dose clearance [3]: 38.3 L/h/70 kg and 25.0-66.8 L/h/70 kg | test dose AUC [4]: 0.48 to 1.11 µg·h/mL | test dose clearance [4]: 27.6 L/hr./70 kg and 15.7-34.0 L/hr./70 kg | full dose AUC (median and range, patients <10 kg, standard dose 4.7 mg/kg, n=6, 4.7 mg/kg): 3.0 to 6.9 µg·h/mL | test dose AUC [5]: 0.29 to 0.72 µg·h/mL | test dose clearance [5]: 47.8 L/h/70 kg and 33.1-67.2 L/h/70 kg | full dose AUC (median and range, patients >10 kg, standard dose 140 mg/m2, n=11): 4.1 to 9.5 µg·h/mL | test dose PK predicted AUC for standard full dose (median and range, six patients (7 transplants) with impaired organ function): 13.8 µg·h/mL and 11.1 to 16.4 µg·h/mL | test dose AUC [6]: 0.7 to 1.45 µg·h/mL | test dose clearance [6]: 18.5 L/hr./70 kg and 11.3-35.9 L/hr./70 kg | Test dose PK predicted full close AUC (median, PK-adjusted full dose): 13.8 µg·h/mL | Full dose CL [7]: 18.8 L/h/70 kg | Test dose CL [7]: 45.2 L/h/70 kg | Test dose PK predicted full close AUC (median, Standard full dose): 5.7 µg·h/mL | Test dose CL (median, Standard full dose, N = 16 (16)): 18.5 L/h/70 kg | Full dose CL (median, Standard full dose, N = 17 (17)): 38.3 L/h/70 kg | Test dose PK predicted full close AUC (median, Total): 5.9 µg·h/mL | Test dose CL (median, Total, N = 22 (23)): 33.9 L/h/70 kg | Full dose CL (median, Total, N = 23 (24)): 37.4 L/h/70 kg | full dose AUC if given standard full dose (patients with impaired organ function, predicted from test dose PK): 11.0 ± 3.6 µg·h/mL | Distribution of AUC (h * μg/mL): 3.5-≤6.5 (PK-adjusted full dose): 85.7% | Distribution of AUC (h * μg/mL): <3.5 (PK-adjusted full dose): 14.3% | Distribution of AUC (h * μg/mL): >6.5 (PK-adjusted full dose): 0.0% | Distribution of AUC (h * μg/mL): 3.5-≤6.5 (Standard full dose): 70.6% | Distribution of AUC (h * μg/mL): <3.5 (Standard full dose): 5.9% | Distribution of AUC (h * μg/mL): >6.5 (Standard full dose): 23.5% | Distribution of AUC (h * μg/mL): 3.5-≤6.5 (Total): 75.0% | Distribution of AUC (h * μg/mL): <3.5 (Total): 8.3% | Distribution of AUC (h * μg/mL): >6.5 (Total): 16.7%
